Patent publication US20120178672A1, “Compositions and Methods for Sparing Muscle in Renal Insufficiency and During Hemodialysis” (priority 2009, published 2012)

Tested on: subjects
Assay: Rate of urea production by tracer technique after ingestion of EAAs following resistance exercise
Type: in vivo
Settings: infusion, same tracer methodology, same time interval
Procedure: Acute changes in the rate of urea production were measured using a tracer technique known to those of skill in the art. […] The reason for the lack of an increase in urea production is believed to be the reutilization of non-essential amino acids for muscle protein synthesis rather than transport to the liver for degradation and incorporation of the nitrogen into urea. This is reflected by the steady drop in the concentration of alanine in the blood, as depicted in the chart of FIG. 2B. Thus, the EAA blend greatly stimulates net muscle protein synthesis without increasing blood urea concentration. This aspect of the disclosed composition is of potentially great advantage to CKD patients, as the provision of intact protein alone increases blood urea while having minimal effect on muscle protein net balance.

C[C@H](N)C(=O)O [alanine]
Urea production: stimulated urea significantly

NC(=O)CC[C@H](N)C(=O)O [glutamine]
Urea production: stimulated urea significantly
